Source: US20220370636A1, “NICOTINAMIDE ADENINE DINUCLEOTIDE ACTIVATOR AND USE THEREOF” (University of South Florida, priority 2021, published 2022)

Legend:
Assay type in all cases: in vivo
db/db mice hearts [1] = assay: Western blotting of db/db heart lysates; conditions: vs vehicle
Procedure: Western blotting. For studies aimed to assess the insulin stimulated AKT phosphorylation, following four-week P7C3 treatment, mice were injected with Novolin R human insulin (1 Unit/kg body weight, i.p.), and hearts were collected after 5 minutes for Western blot analysis. Protein lysates for Western blotting were prepared from mouse hearts as described previously. Equivalent amounts of protein were loaded and resolved using 12% precast polyacrylamide gels (BioRad, CA, USA). Successful transfer of proteins was detected using Ponceau S (Sigma-Aldrich, MO, USA), and blots were probed with mouse monoclonal primary antibody for phospho AKT^ser473 (p-AKT), total AKT (t-AKT), phospho eNOS^ser1177 (p-eNOS), total eNOS (t-eNOS), Beclin1, and GAPDH (Cell signaling, MA, USA). HRP conjugated Rabbit anti-mouse antibody (Millipore) was used as a secondary antibody. Target protein band densities were quantified using Image J software.

db/db mice [2] = assay: Ex vivo myofibre contractility and force-frequency relationship of extensor digitorum longus muscle
Source text: Ex vivo myofibre contractility and force-frequency relationship. Animals were euthanized in compliance with University of South Florida IACUC guidelines. The extensor digitorum longus (EDL) muscles of each animal were tied with surgical silk at the proximal and distal tendons and dissected free. Muscles were immediately transferred to a customized vertical organ bath system (Aurora Scientific Inc., Canada) with the suture on the distal tendon clamped in place and that on the proximal tendon tied to a force transducer such that the muscles were positioned between two platinum wirestimulating electrodes. […] Muscles were equilibrated for 10-15 min after which, the optimal muscle length (l0) for each muscle was calculated by adjusting the length until a maximal force response to a single twitch was attained. Following determination of l0, the muscles were subjected to stimulation trains (500 ms duration) of frequencies ranging from 1-125 Hz, 1 per minute to determine the force-frequency relationship (FFR). Stimulation was delivered with a 58800 dual pulse digital stimulator (Grass Products, West Warwick, R.I., USA), and all pulses were 1 ms in duration. The peak forces of each contraction at the different stimulation frequencies were used to plot the FFR. […]

db/db mice hearts [3] = assay: Pyridine nucleotide measurements in db/db hearts; conditions: vs vehicle control
Procedure: Pyridine nucleotide measurements. NADH/NAD^+ ratios were determined in frozen db/db heart tissues (from the vehicle and P7C3 treated mice) using commercially available EnzyChrome kit (Bioassays, Hayward, Calif., USA) as reported before. Following manufacturer's instructions, cardiac tissue was homogenized in 100 μl of NAD^+ or NADH extraction buffer for NAD^+ and NADH determination, respectively. Samples were heated at 60° C. for 5 minutes on a heat block and neutralized by adding 100 μl of the opposite extraction buffer. Samples were then mixed by brief vortexing and centrifuged at 14,000 rpm for 5 minutes. 40 μl of supernatant from each sample was dispensed in duplicates in a 96-well plate, and 80 μl of working reagent constituted with supplier provided assay buffer, lactate dehydrogenase, lactate and MTT reagent was added to each well. Samples were gently mixed and optical density at 565 nm was acquired immediately (0 min) and after 15 minutes, at room temperature using a microplate reader. A standard curve was utilized for calculating NADH/NAD^+ levels in each sample.

db/db mice [4] = assay: Skeletal muscle histology, TEM, SDH staining and mtDNA copy number in db/db mice
Procedure: Haematoxylin and eosin staining. The tibialis anterior (TA) muscle was dissected from the mice, and embedded in optimal cutting temperature (OCT), frozen in isopentane chilled in liquid nitrogen and stored at […]. […] Images were obtained at ×10 and ×20 magnifications with the Olympus IX73 inverted microscope and were quantified using CellSens Standard software (Olympus Soft Imaging Solution, USA).
Transmission electron microscopy. The EDL muscles were fixed with 2.5% glutaraldehyde in 0.1 M sodium phosphate buffer for 2 h at RT, and overnight at 4° C., followed by washing in buffer and fixation with 1% osmium tetroxide in buffer for 2 h at 4° C. After rinsing in buffer, the samples were then dehydrated in ethanol and acetone at RT and infiltrated in acetone:pure resin (Embed812) mix in vacuum with desiccant for 1 h and in pure resin for 4 h and embedded in the embedding mix. Polymerization of the embedding mix was carried out overnight at 70° C. in the embedding moulds. Semithin (1 μm) and ultrathin (70 nm) sections were cut using a Reichert Ultracut microtome machine. The sections were then stained with 2% uranyl acetate and contrasted with lead citrate as per standard protocol. Images were taken at ×15,000, ×30,000, and ×50,000 magnifications with a JOEL1400 transmission electron microscope for the analysis of myofibre diameter and the mitochondrial area.
Mitochondrial DNA (mtDNA) copy number. Total DNA was extracted from gastrocnemius (GAS) muscle using DNeasy Blood and Tissue kit (Qiagen, Md., USA) according to the manufacturer's protocol. The quantitative real-time PCR (qPCR) analysis of the mtDNA/nDNA was performed using iTaq Universal SYBR green supermix (Bio-Rad Laboratories, CA, USA). The mouse 16S was used as the mitochondrial gene and HK2 was used as the nuclear gene to obtain the mitochondrial copy number.
Succinate dehydrogenase staining. The 10 μm thick transverse cryosections of TA muscles were cut at the mid-belly region using Leica CM 1860 AgProtect cryostat machine. Briefly, the tissue sections were air-dried for 45 minutes, and incubated in 50 mM sodium succinate dibasic hexahydrate and 1.25 mM nitroblue tetrazolium in 0.1 M phosphate buffer (Sigma-Aldrich, MO, USA) for 30 min. The reaction was stopped washing in deionized water, and the sections were dehydrated in a series of graded ethanol and cleared using xylene. The sections were then mounted with DPX mountant, and the images were captured at ×20 magnification of the Olympus IX73 inverted microscope using CellSens Standard software (Olympus Soft Imaging Solution, USA) and the succinate dehydrogenase (SDH) positive myofibres were quantified with ImageJ software.

Nampt = molecular target: T1, Nampt (Mus musculus, UniProt Q99KQ4); assay: Gastrocnemius muscle Nampt enzymatic activity in db/db mice; conditions: 4 weeks, vs db-Veh
T1 construct: from tissue; host or cells: whole heart homogenate of db/db mice
Source text: Nampt enzymatic activity.

db/db mice [5] = assay: Grip strength and voluntary running wheel in db/db mice; conditions: 4 weeks, vs db-Veh
Procedure: Grip strength and voluntary running wheel. The fore-limb and hind-limb grip strengths were measured with the use of Chatillon force measurement DFE II grip strength meter (Ametek, Columbus Instruments, OH, USA). The average of five measurements per mice is represented as KGF/kg body weight for both the fore-limb and hind-limb grip strengths measured. The overnight voluntary running wheel experiments were carried out with the Columbus Instruments O297, the CI Multi-Device Interface (Columbus Instruments, OH, USA) per manufacturer's recommendations.

[6] = tibialis anterior, H&E, vs db-Veh

T1 sequence (Q99KQ4 whole entry): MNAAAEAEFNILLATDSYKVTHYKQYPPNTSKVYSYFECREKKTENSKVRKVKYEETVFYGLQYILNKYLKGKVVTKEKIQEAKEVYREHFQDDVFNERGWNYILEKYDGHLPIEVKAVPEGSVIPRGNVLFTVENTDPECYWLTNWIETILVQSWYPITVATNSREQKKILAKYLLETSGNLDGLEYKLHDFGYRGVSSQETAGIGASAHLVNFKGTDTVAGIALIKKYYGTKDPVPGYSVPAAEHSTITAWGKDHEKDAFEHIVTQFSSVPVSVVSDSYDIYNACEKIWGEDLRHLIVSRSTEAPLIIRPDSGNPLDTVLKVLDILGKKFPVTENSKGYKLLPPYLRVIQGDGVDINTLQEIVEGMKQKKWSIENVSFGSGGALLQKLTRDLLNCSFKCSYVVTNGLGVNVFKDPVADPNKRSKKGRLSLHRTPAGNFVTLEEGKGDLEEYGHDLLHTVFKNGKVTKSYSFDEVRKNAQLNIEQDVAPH

Which “p-AKT signaling in cardiac tissue” value (db/db mice hearts [1]; 10 mg/kg/day i.p.) does the source give for `OC(CNc1ccccc1)Cn1c2ccc(Br)cc2c2cc(Br)ccc21` (stereo not shown) [P7C3, 3,6-Dibromo-a-[(phenylamino)methyl]-9H-carbazole-9-ethanol] here?
Its value is “significantly increased”.

And the “Beclin 1 protein expression” value (db/db mice hearts [1])?
The value was “significant increase”.

And the “p-eNOS levels in cardiac tissue” value (db/db mice hearts [1])?
Its value is “significantly increased”.

What about the “reduced EDL force at higher frequencies seen in db-Veh” value (db/db mice [2]; db/db, 4 weeks) of the same molecule?
Its value is “mitigated”.

And the “absolute myofibre force frequency area under curve” value (db/db mice [2]; ex vivo EDL, vs db-Veh)?
Its value is “significant increase”.

And the “increase in cardiac NAD+/NADH ratio” value (db/db mice hearts [3])?
The value was 2.5 fold.

And the SDH positive myofibres (db/db mice [4]; TA muscle, 4 weeks)?
Its SDH positive myofibres is “significantly improved”.

And the “mitochondria morphology and function” value (db/db mice [4]; TEM, db/db)?
Its value is “improved”.

What about the “myofibre diameter of the extensor digitorum longus muscle” value (db/db mice [4]; TEM, vs db-Veh) of the same molecule?
Its value is “increase”.

What about the “16S expression (mtDNA)” value (db/db mice [4]; gastrocnemius, vs db-Veh) of the same molecule?
The value was “significantly decreased”.

And the “medium and larger sized myofibres cross-sectional areas” value (db/db mice [4]; [6])?
Its value is “increase”.

What about the “small myofibres cross-sectional areas (0-1500 μm^2)” value (db/db mice [4]; [6]) of the same molecule?
Its value is “significant decrease”.

And the “Nampt activity in gastrocnemius muscle” value (Nampt)?
The value was “significant increase”.

What about the fore-limb grip strength (db/db mice [5]) of the same molecule?
Its fore-limb grip strength is “significant increase”.

And the hind-limb grip strength (db/db mice [5])?
The hind-limb grip strength was “significant increase”.

And the “voluntary running wheel distance covered” value (db/db mice [5])?
Its value is “significant in-crease”.
